This is an account of results in PubChem BioAssay AID602210 (Sanford-Burnham Center for Chemical Genomics, 2012).

Active and inactive are the calls of the source. The rule behind the calls is not given here.

This test in a line: modulators of 2-deoxyglucose-induced H9c2 death, dose response, myocardial damage modulator project, cell-based, ATPlite luminescence, rat, set 2 (AID 602210). The conditions noted are these: H9c2 rat cardiomyoblasts, 2-deoxyglucose-induced death, 2 h.
Take `COc1cccc(Nc2nc3ccccc3n3nnnc23)c1`: the IC50 – broadly, the point on the concentration scale where inhibition reaches its midpoint – is > 79 µM (inactive).
Take `COc1ccc(CCNC(=O)c2cc3c(C)nccc3[nH]c2=O)cc1OC`: the IC50 was 20.7 µM (inactive).
On to `CCN(CC)S(=O)(=O)c1ccc(N2CCOCC2)c(NC(=O)c2cc(-c3ccccn3)nc3ccccc23)c1`, for which the concentration for half-maximal inhibition (IC50) is 4.51 µM.
As to `CCN(CC)S(=O)(=O)c1ccc(Nc2nc3ccccc3n3nnnc23)cc1`, the half-inhibitory concentration (IC50) was 7.9 µM.
Then `NC(=O)c1nsc(C(=O)N(Cc2ccco2)C(C(=O)NCc2ccccc2)c2ccc(O)cc2)c1N` (centres undefined), with 14.9 µM (inactive).
Then `O=C(NC1CCCCC1)C(c1ccc2ncccc2c1)N(Cc1ccco1)C(=O)c1ccc2c(c1)OCCO2` (centres undefined), with 42.5 µM (inactive); and `O=C(NCCc1c[nH]c2ccccc12)C(=O)NCC(c1ccco1)N1CCN(c2ccccc2F)CC1` (centres undefined), with > 79 µM (inactive).
Then `CC(C)(C)OC(=O)C[C@@H]1C/C=C\C[C@@H](CC(=O)N[C@H](CO)Cc2ccccc2)C(=O)NC[C@@H](c2ccccc2)OC1=O`, with 64 µM (inactive); and `Cc1nc(N2CCN(c3ccccn3)CC2)c2c(C)c(C(=O)Nc3ccc(F)cc3)sc2n1`, with 14.9 µM (inactive).
As for `CCOC(=O)C1CCN(C(c2cc3c(C)ccc(C)c3[nH]c2=O)c2nnnn2C2CCCCC2)CC1` (centres undefined), the IC50 was 19.2 µM (inactive).
On to `COc1ccc(CC(=O)N(Cc2ccccc2)c2ccccc2)cc1S(=O)(=O)N1CCOCC1`, for which the IC50 was 8.92 µM.
As to `CNC(=O)c1ccc(-c2sc3nc(N4CCOCC4)c4c(c3c2N)CCCC4)o1`, the IC50 is > 79 µM (inactive).
As for `COc1cc(C(=O)Nc2ccc(NC(=O)c3ccco3)nc2)cc(OC)c1OC`, the IC50 was 38.5 µM (inactive).
Turning to `Cn1c(=O)c2[nH]c(NN=Cc3ccc(Br)cc3)nc2n(C)c1=O`, the IC50 is 10.6 µM (inactive).
For the compound `NC(=O)c1cc2ccccc2o/c1=N\NC(=O)c1ccc(F)cc1`, the half-inhibitory concentration (IC50) is 7.99 µM.
Consider `COc1cc(-c2cc(C(=O)Nc3ccccc3N3CCOCC3)c3ccccc3n2)cc(OC)c1OC`, for which the IC50 is 11.2 µM (inactive).
On to `O=C(N/N=C/c1ccc2c(c1)OCO2)c1ccc(NC(=O)c2ccccc2Cl)cc1`, for which the IC50 was 14.8 µM (inactive).
On to `COc1ccccc1NC(=O)c1cc(-c2ccc(OC)c(OC)c2)nc2ccccc12`, for which the half-inhibitory concentration (IC50) is 7.39 µM.
The figure for `COc1ccc(/C=N/NC(=O)c2cc(-c3ccc4c(c3)OCO4)n[nH]2)cc1OC` is 9.02 µM; for `Cc1ccc2nsnc2c1S(=O)(=O)N(Cc1ccco1)Cc1cc2cccc(C)c2[nH]c1=O` it is > 79 µM (inactive).
`NC(=O)c1nsc(C(=O)N(c2ccccc2)C(C(=O)NCc2ccc(F)cc2)c2ccc(O)cc2)c1N` (centres undefined): the IC50 was 9.29 µM.
Consider `COCCCNC(=O)/C(C#N)=C1\N=C(NC(=O)c2cccs2)c2ccccc21`, for which the IC50 was > 79 µM (inactive).
Regarding `O=C(NC1CCCCC1)C(c1ccc2ncccc2c1)N(Cc1ccccc1)C(=O)c1ccc2c(c1)OCCO2` (centres undefined), the IC50 was 29.4 µM (inactive).
With `CC(=O)Nc1cc(-c2ccc(C(=O)NC3CC3)cc2)cn2c(-c3cccc(C(C)=O)c3)cnc12`, the IC50 was 23.3 µM (inactive).
The figure for `C=CC[C@@H](CC(=O)N[C@H](CO)Cc1ccccc1)C(=O)N[C@@H](COC(=O)[C@@H](CC=C)CC(=O)OC(C)(C)C)Cc1ccccc1` is 45.4 µM (inactive).
In the case of `COc1cccc(NC(=O)c2oc3ccc(S(=O)(=O)N4CCOCC4)cc3c2C)c1`, the IC50 was 19.5 µM (inactive).
In the case of `N#C/C(=C\c1cn(-c2ccccc2)nc1-c1cccnc1)c1nnc2n1CCCCC2`, the IC50 is 30.2 µM (inactive).
Take `COc1ccc2c(c1OC)c(=O)n1c3ccc(OC(C)C(=O)NCCN4CCOCC4)cc3c3ccnc2c31` (centres undefined): the IC50 is 46.6 µM (inactive).
As for `COc1cc(/C=C(\C#N)C(=O)Nc2ccccc2)ccc1OCCN1CCOCC1`, the IC50 is > 79 µM (inactive).
The figure for `COc1ccc(CN(C)C(=O)C(Cc2ccccc2)NC(=O)c2ccccc2)cc1F` (centres undefined) is 10.5 µM (inactive).
Take `Brc1cc2c(cc1/C=N/Nc1nc(N3CCCC3)nc(N3CCOCC3)n1)OCO2`: the IC50 was 16 µM (inactive).
As for `CC(=O)Nc1ccc(Nc2nc(-c3sc(NC(C)=O)nc3C)cs2)cc1`, the IC50 was 18.8 µM (inactive).
With `O=C(Nc1nc(-c2ccccn2)cs1)c1ccc(-c2ccccc2F)o1`, the IC50 was > 79 µM (inactive).
The figure for `COc1ccc(OC)c(NC(=O)COC(=O)c2c3c(nc4ccccc24)CCCC3)c1` is 7.78 µM; for `O=C(c1ccccc1)c1ccc2nc(N3CCN(C(=O)c4ccco4)CC3)c3nncn3c2c1` it is 21.9 µM (inactive).
For `COc1ccccc1OCC(=O)N/N=C/c1cccc2cccnc12`, the IC50 is > 79 µM (inactive).
Turning to `COC(=O)c1ccccc1NC(=O)c1nc2nc(C)cc(C)n2n1`, the IC50 was 67.2 µM (inactive).
`CN(C)S(=O)(=O)n1cc(/C=C(\NC(=O)c2ccccc2F)C(=O)NCCN2CCOCC2)c2ccccc21`: the IC50 is > 79 µM (inactive).
Then `C[C@H](CO)N1C[C@H](C)[C@@H](CN(C)S(=O)(=O)c2ccccc2)Oc2ccc(NC(=O)Nc3ccccc3)cc2C1=O`, with 36.2 µM (inactive).
The figure for `Brc1ccc(-c2nn3c(-c4ccccn4)nnc3s2)o1` is 42.3 µM (inactive).
For the compound `O=C(Nc1cccc(Cl)c1)c1nc[nH]c1C(=O)NCCCNC(=O)c1[nH]cnc1C(=O)Nc1cccc(Cl)c1`, the IC50 was > 79 µM (inactive).
On to `COc1ccc(OCC(O)Cn2c(Br)nc3c2c(=O)[nH]c(=O)n3C)cc1` (centres undefined), for which the IC50 is 38.1 µM (inactive).
Consider `OC1CCN(c2c3c(nc4cc(-c5cccc(F)c5)nn24)CCCC3)CC1`, for which the IC50 was 23.8 µM (inactive).
In the case of `O=C(CN1CCN(c2ccccn2)CC1)Nc1ccc([N+](=O)[O-])cc1C(=O)Nc1ccccc1F`, the IC50 was 12.8 µM (inactive).
For `C=C1C(C)C2C(Cc3ccccc3)NC(=O)C23OC(=O)/C=C/C(O)CCCC(C)C/C=C/C3C1O` (centres undefined), the half-maximal inhibitory concentration (IC50) was 0.95 µM.
For the compound `N#Cc1c(-c2ccco2)cc(-c2ccccn2)nc1N`, the IC50 is 37.2 µM (inactive).
The figure for `COC(=O)c1cc(C(=O)OCC(=O)N2c3ccccc3NC(=O)C2(C)C)cc([N+](=O)[O-])c1` is 47.6 µM (inactive); for `CC/C(C)=N\N=C\c1c(O)n(CC)c2cc(C3=NNC(=O)CC3)ccc12` it is > 79 µM (inactive).
As to `COc1cccc(C(=O)Nc2cc(C)c3c(=O)oc4ccccc4c3n2)c1`, the IC50 was > 79 µM (inactive).
Consider `COc1cc(CN2C[C@@H](CO)O[C@@H](n3cnc4c(Nc5ccccc5)ncnc43)C2)cc(OC)c1OC`, for which the IC50 is 17.5 µM (inactive).
Consider `COc1ccc(/C=N/NC(=O)c2ccc(COc3cccc4cccnc34)cc2)cc1OC`, for which the IC50 was 12.1 µM (inactive).
For `Cc1c(C(=O)Nc2ccc3nc(N4CCOCC4)sc3c2)oc2ccccc12`, the IC50 is 15.8 µM (inactive).
As to `O=C(CN1C(=O)C2CC=CCC2C1=O)Nc1nc(-c2ccc(F)cc2)cs1` (centres undefined), the IC50 is > 79 µM (inactive).
As to `CCOC(=O)c1ccccc1OCc1cc(/C=N/NC(=O)c2cccnc2)ccc1OC`, the 50% inhibitory concentration (IC50) is 6.98 µM.
Turning to `CC(C)CC(C(=O)NC1CCCCC1)N(Cc1cccs1)C(=O)c1snc(C(N)=O)c1N` (centres undefined), the IC50 is 29.3 µM (inactive).
With `CC(=O)c1ccc(N2CCN(C(=O)C3CCCN(c4ncnc5c4nc4n5CCCCC4)C3)CC2)cc1` (centres undefined), the IC50 is 25.6 µM (inactive).
The figure for `COc1ccc(OCC(O)Cn2c(Nc3cccc(C)c3)nc3c2c(=O)n(C)c(=O)n3C)cc1` (centres undefined) is 34 µM (inactive); for `CC(=O)Nc1cc(-c2cccc(C(=O)N(C)C)c2)cn2c(-c3ccc(C(C)=O)cc3)cnc12` it is 27.1 µM (inactive).
As to `COc1ccccc1-c1cc(NC(C)=O)c2ncc(-c3cccc(C(C)=O)c3)n2c1`, the IC50 was > 79 µM (inactive).
Regarding `Cc1ncc(CO)c2c1Oc1nc(-c3ccccc3)nc(SCC(=O)N3CCCCC3)c1C2`, the IC50 was > 79 µM (inactive).
On to `O=C(Nc1cccc(/C=C/c2ccccn2)c1)c1ccc(-n2cncn2)cc1`, for which the IC50 is > 79 µM (inactive).
For `Cc1ccc(C(=O)Nc2cccc(C(F)(F)F)c2)cc1NC(=O)c1csc(-c2ccncc2)n1`, the IC50 was > 79 µM (inactive).
Then `NC(=O)c1ccc(Nc2nnc(-c3ccc(O)cc3)c3ccccc23)cc1`, with 34.2 µM (inactive); and `c1ccc(-c2nc(-n3ccnc3)nc(-n3ccnc3)n2)cc1`, with 9.07 µM.
The figure for `CCOc1cccc(-c2nn3c(-c4ccccn4)nnc3s2)c1` is 30.2 µM (inactive).
The figure for `O=C(C[C@H]1C/C=C\CC[C@H](Cc2ccc(F)cc2)C(=O)O[C@H](c2ccccc2)CNC1=O)N[C@H](CO)Cc1ccccc1` is 7.55 µM; for `Nc1cc2[nH]c(=O)c3ccccc3c2cc1[N+](=O)[O-]` it is 24.4 µM (inactive); for `COC(=O)c1[nH]c2cc(OC)c(OC)cc2c1/C=N/Nc1ccccc1` it is > 79 µM (inactive).
For `CCCN1C(=O)c2cc(C(=O)Nc3cccc(C(C)=O)c3)ccc2C1Nc1cccc(C(C)=O)c1` (centres undefined), the IC50 is 13.7 µM (inactive).
For the compound `COC(=O)c1cc2ccccn2c2c(C(=O)OC)c(C(=O)OC)cc1-2`, the IC50 was 5.26 µM.
`CCCCNC(=O)c1cn(-c2ccc(OCC)cc2)c(=O)c2cc(OC)c(OC)cc12`: the IC50 was 39.2 µM (inactive).
Consider `COc1ccc(-c2ccc3c(c2)S(=O)(=O)c2cccc(C(=O)NC[C@@H]4CCCO4)c2C3=O)cc1OC`, for which the IC50 was 13.4 µM (inactive).
With `O=C(c1ccco1)N1CCN(C(=O)c2cc(-c3ccncc3)nc3ccc(Br)cc23)CC1`, the IC50 is 25.8 µM (inactive).
On to `CC(C)(C)OC(=O)N1CCC(NC(=O)c2nc[nH]c2C(=O)NCC(=O)OCc2ccccc2)CC1`, for which the IC50 is 4.3 µM.
Take `Cn1c(=O)n(CCc2ccccc2)c(=O)c2c1nc1n2CCN1Cc1ccco1`: the IC50 is 19.3 µM (inactive).
Consider `COc1cccc(-c2nn(-c3ccccc3)cc2C(=O)Nc2nccs2)c1`, for which the IC50 was 16.3 µM (inactive).
Turning to `COc1ccccc1CN(C(=O)CNC(=O)c1ccco1)C(C(=O)NCC1CCCO1)c1ccccc1` (centres undefined), the half-inhibitory concentration (IC50) was 9.47 µM.
As to `Cn1c(=O)c2[nH]c(NN=Cc3cccc(Br)c3)nc2n(C)c1=O`, the 50% inhibitory concentration (IC50) is 7.47 µM.
Consider `COc1cc(OC)cc(C(=O)Nc2ccc(C(=O)Nc3ccccc3OC)cc2)c1`, for which the IC50 is 16.6 µM (inactive).
